Source: publication PMC6271241, “Several Human Cyclin-Dependent Kinase Inhibitors, Structurally Related to Roscovitine, As New Anti-Malarial Agents” (Molecules, 2014)
Read-outs that look alike come from different tables or passages of the source.

Experiments:
Pf3D7 = experiment: [3H]hypoxanthine incorporation growth assay, Pf3D7; type: cell-based, Plasmodium falciparum; settings: for IC50: Plasmodium falciparum
Experimental: (§1) A selection of 15 molecules 4b–c, 10–13 representing the different 2,6,9-trisubstituted purine series, including newly synthesized products was screened as anti-malarial agents on two different P. falciparum strains, Pf3D7, a standard drug-sensitive African stain, and Pf7G8, a brazilian chloroquino-resistant strain (Figure 3). The compound activity was evaluated during the parasitic erythocytic cycle, by the means of a [^3H] hypoxanthine incorporation assay. It is directly correlated to parasite viability, as described in the experimental section.
(§2) At first, the activity of the fifteen compounds was screened at three different concentrations (10, 50 and 100 µM) on Pf3D7. Chloroquine which is not a kinase inhibitor, but which is the antimalarial reference drug was used as the positive control. […] Chloroquine was again used as a positive control.
(§3) Compounds were tested against synchronous ring-stage parasites of Pf3D7 and Pf7G8 strains. Drugs testing were carried out in 96-well microtiter plates. The chloroquine (CQ) diphosphate was purchased from Sigma (Lyon, France). […] For each assay, each drug dilution was analyzed in triplicate.
(§4) For the in vitro isotopic microtest, 200 µL of the suspension of synchronous parasitized red blood cells with >90% of the parasites at the ring stage (final parasitaemia, 0.3%; final haematocrit, 4%) per well were plated in 96-well plates that contained serial CQ or compounds concentrations. […] The plates were incubated at 37 °C, in an atmosphere of 5% O2, 5% CO2, and 90% N2 for 48 h. Immediately after incubation, plates were frozen and then thawed to lyse the erythrocytes. Cultures were harvested onto glass fiber filters and washed using a cell harvester (FilterMAT; Skatron Instruments, Dalsletta, Norway). The dried fiber filter papers were mixed with 2 mL of scintillation fluid (OptiScint; Perkin-Elmer, Waltham, UK). […] The initial value and the asymptotic result for high concentrations were fixed to 0% and 100%, respectively, available on the web.

Pf7G8 = experiment: [3H]hypoxanthine incorporation growth assay, Pf7G8; type: cell-based, Plasmodium falciparum; settings: for IC50: Plasmodium falciparum
Experimental: as §1, §2, §3, §4

DYRK1A [1] = tested on: DYRK1A; set-up: method as in PMID 17850214; settings: at 1 µM; cited from earlier work
[2] = set-up: method as in PMID 12809528; settings: cited from earlier work
GSK-3α/β = GSK-3α/β kinase assay (GS-1 peptide); settings: read-out: IC50 GSK-3αβ; 15 µM ATP; Table 1; >10 = no activity at 10 µM
Experimental: (§6) The effects on CDK1/cyclin B, CDK2/cyclin A, CDK5/p25, GSK-3αβ, CK1δ/ε and DYRK1A kinase activity are reported as the IC50 values calculated from dose-response curves. The inhibition was determined covering a range of concentrations of the compounds by means of a [γ-^33P] assay as described in the experimental section.
(§7) Controls were performed with appropriate dilutions of DMSO.
GSK-3α/β (porcine brain, native) was assayed, as described for CDK1 but in Buffer A and using a GSK-3 specific substrate (GS-1: [sequence]pEDEEE) (pS stands for phosphorylated serine).

CK1δ/ε [3] = tested on: CK1δ/ε; set-up: method as in PMID 18698753; settings: read-out: IC50 CK1, cited from earlier work
CDK1/cyclin B [4] = experiment: CDK1/cyclin B kinase assay ([γ-33P] ATP, histone H1); type: biochemical, starfish; settings: 15 µM ATP, Table 1
Experimental: (§5) CDK1/cyclin B (M phase starfish oocytes, native), CDK2/cyclin A (human, recombinant) and CDK5/p25 (human, recombinant) were prepared as previously described. […] ATP (3000 Ci/mmol; 10 mCi/mL) in a final volume of 30 µL. After 30 min incubation at 30 °C, 25 µL aliquots of supernatant were spotted onto 2.5 cm × 3 cm pieces of Whatman P81 phosphocellulose paper, and, 20 s later, the filters were washed five times (for at least 5 min each time) in a solution of 10 mL of phosphoric acid/liter of water. The wet filters were counted in the presence of 1 mL of ACS (Amersham, Pittsburgh, PA, USA) scintillation fluid.

CK1δ/ε [5] = experiment: CK1δ/ε kinase assay (CKS peptide); settings: read-out: IC50 CK1δ/ε; 15 µM ATP; Table 1
Experimental: as §6, §7

CDK5/p25 = target: T1, CDK5/p25 (Homo sapiens, UniProt Q00535); experiment: CDK5/p25 kinase assay ([γ-33P] ATP, histone H1); type: biochemical
T1 construct: made in house
Experimental: as §5

N2A-APP659 cell model = tested on: N2A-APP659 cell model; set-up: method as in PMID 18698753; settings: dose-dependent; cited from earlier work
DYRK1A [6] = target: DYRK1A (Homo sapiens, UniProt Q13627); experiment: DYRK1A kinase assay (Woodtide); type: biochemical; settings: 15 µM ATP; Table 1
CDK2/cyclin A = target: T2, CDK2/cyclin A (Homo sapiens, UniProt P24941); experiment: CDK2/cyclin A kinase assay ([γ-33P] ATP, histone H1); type: biochemical; settings: 15 µM ATP, Table 1
T2 construct: made in house
Experimental: as §5

CDK1/cyclin B [7] = experiment: CDK1/cyclin B kinase assay ([γ-33P] ATP, histone H1); type: biochemical, starfish; settings: Table A1; read-out: IC50 on HsCDKs HsCDK1
CDK1/cyclin B [8] = tested on: CDK1/cyclin B; set-up: method as in PMID 18698753; settings: previously reported; cited from earlier work
CK1 = tested on: CK1; set-up: method as in PMID 10662688; settings: cited from earlier work
[9] = CDK5/p25, 15 µM ATP, Table 1, read-out: IC50 CDK5
[10] = Table A1, read-out: IC50 on HsCDKs HsCDK5
[11] = 48 h, drug-sensitive strain, 48 h, Table 2, read-out: Growth IC50 Pf3D7
[12] = Table A1, N.I. = not inhibitor, read-out: IC50 on P. falciparum Strains Pf3D7
[13] = Table A1, N.I. = not inhibitor, read-out: IC50 on P. falciparum Strains Pf7G8
[14] = chloroquino-resistant strain, 48 h, Table 2, read-out: Growth IC50 Pf7G8

T1 sequence (Q00535 whole entry): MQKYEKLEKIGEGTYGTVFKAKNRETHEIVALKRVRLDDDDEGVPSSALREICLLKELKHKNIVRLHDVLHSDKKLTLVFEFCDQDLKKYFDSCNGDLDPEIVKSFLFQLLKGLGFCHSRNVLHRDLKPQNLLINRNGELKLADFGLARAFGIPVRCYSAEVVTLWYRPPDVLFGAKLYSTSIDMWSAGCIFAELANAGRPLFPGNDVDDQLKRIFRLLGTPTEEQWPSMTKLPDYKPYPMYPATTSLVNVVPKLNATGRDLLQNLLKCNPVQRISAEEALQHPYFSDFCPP
T1 sequence (Q15078 99-307 partner limits assumed): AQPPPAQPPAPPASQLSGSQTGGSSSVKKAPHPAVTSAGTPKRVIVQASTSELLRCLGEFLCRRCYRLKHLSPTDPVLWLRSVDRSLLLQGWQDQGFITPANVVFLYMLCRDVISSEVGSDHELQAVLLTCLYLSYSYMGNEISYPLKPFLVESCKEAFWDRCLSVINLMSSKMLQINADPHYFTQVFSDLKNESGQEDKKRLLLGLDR

| SMILES | IC50 (GSK-3α/β) [nM] | IC50 (CDK1/cyclin B [4]) [nM] | IC50 (CK1δ/ε [5]) [nM] | IC50 (CDK5/p25; [9]) [nM] | IC50 on P. falciparum Strains Pf3D7 (Pf3D7; Table A1, N.I. = not inhibitor) | IC50 (CDK5/p25; [10]) [nM] | IC50 on P. falciparum Strains Pf7G8 (Pf7G8; Table A1, N.I. = not inhibitor) | IC50 (CDK1/cyclin B [7]) [nM] | also measured |
| --- | --- | --- | --- | --- | --- | --- | --- | --- | --- |
| CCN(CC)CCCC(C)Nc1ccnc2cc(Cl)ccc12 (centres unmarked) [Chloroquine, chloroquine, reference compound] |  |  |  |  |  |  |  |  | IC50 (Pf3D7; 48 h, read-out: Growth IC50 Pf3D7): 30 nM; IC50 (Pf7G8; 48 h, read-out: Growth IC50 Pf7G8): 180 nM |
| CC[C@H](CO)Nc1nc(NCc2ccccc2)c2ncn(C(C)C)c2n1 [Compound 1, (R)-roscovitine] |  |  |  |  |  |  |  |  | remaining DYRK1A kinase activity (DYRK1A [1]): 87%; maximal tolerated dose ([2]; human, daily oral dose): 2 g; oral bioavailability ([2]; humans, oral administration): good oral bioavailability |
| CC[C@H](CO)Nc1nc(Nc2cccc(-c3ccccn3)c2)c2ncn(C(C)C)c2n1 [Compound 3] | > 10000 | 220 | 10 | 80 |  |  |  |  | IC50 (CK1δ/ε [3]): 14 nM; amyloïd-β production (N2A-APP659 cell model): antagonizes amyloïd-β production |
| CC(C)n1cnc2c(Nc3ccc(Br)cc3)nc(Nc3ncccn3)nc21 [Compound 4a] | 1000 |  | 1000 | 1000 |  |  |  |  | IC50 (DYRK1A [6]): 3000 nM |
| CC(C)n1cnc2c(Nc3ccccn3)nc(Nc3ncccn3)nc21 [Compound 4b] | > 10000 |  | > 10000 | > 10000 | N.I. | > 10000 | N.I. |  | IC50 (DYRK1A [6]): 8000 nM |
| CC(C)n1cnc2c(Nc3cccnc3)nc(Nc3ncccn3)nc21 [Compound 4c] | > 10000 | 3000 | > 10000 | 4300 | N.I. |  | N.I. | 3000 | IC50 (CDK2/cyclin A): 1800 nM; IC50 (DYRK1A [6]): 8000 nM |
| CC(C)n1cnc2c(Nc3ccncc3)nc(Nc3ncccn3)nc21 [Compound 4d] | > 10000 | 9300 | 2800 | 7000 |  |  |  |  | IC50 (DYRK1A [6]): 5200 nM |
| CC(C)n1cnc2c(Nc3cncnc3)nc(Nc3cncnc3)nc21 [Compound 5] |  |  |  | 400 |  |  |  |  | IC50 (CDK2/cyclin A): 200 nM |
| CC(C)n1cnc2c(Nc3cnccn3)nc(Nc3cnccn3)nc21 [Compound 6] | > 10000 |  | 1100 |  |  |  |  |  | IC50 (CDK2/cyclin A): 2800 nM; IC50 (DYRK1A [6]): 500 nM |
| CC[C@H](CO)Nc1nc(Nc2ccc(-c3cccnc3)nc2)c2ncn(C(C)C)c2n1 [Compound 10, (R)-2-(1-Hydroxybut-2-ylamino)-6-[6-(3-pyridyl)pyrid-3-ylamino]-9-iso-propylpurine] | > 10000 | 10 | 200 | 30 | N.I. |  | N.I. | 10 |  |
| CC[C@@H](CO)Nc1nc(Nc2cccc(-c3ccccn3)c2)c2ncn(C(C)C)c2n1 [Compound 11, (S)-2-(1-Hydroxybut-2-ylamino)-6-[3-(2-pyridyl)phenylamino]-9-iso-propylpurine] | > 10000 | 800 | 40 | 400 |  |  |  | 800 | IC50 (Pf3D7; [11]): 6530 nM; IC50 (Pf3D7; [12]): 6530 nM; IC50 (Pf7G8; [13]): 2060 nM; IC50 (Pf7G8; [14]): 2060 nM |
| CC[C@@H](CO)Nc1nc(Nc2cccc(-c3cccnc3)c2)c2ncn(C(C)C)c2n1 [Compound 12, (S)-2-(1-Hydroxybut-2-ylamino)-6-[3-(3-pyridyl)phenylamino]-9-iso-propylipurine] | > 10000 | 200 | 200 | 100 |  |  |  | 200 | IC50 (Pf3D7; [12]): 5370 nM; IC50 (Pf7G8; [13]): 1550 nM; IC50 (Pf7G8; [14]): 1550 nM |
| CC[C@@H](CO)Nc1nc(Nc2ccc(-c3ccccn3)cc2)c2ncn(C(C)C)c2n1 [Compound 13, (S)-2-(1-Hydroxybut-2-ylamino)-6-[4-(2-pyridyl)phenylamino]-9-iso-propylpurine] | > 10000 | 200 | 500 |  | N.I. |  | N.I. | 200 | IC50 (CDK2/cyclin A): 200 nM |
| CC[C@H](CO)Nc1nc(Nc2ccc(-c3ccccn3)cc2)c2ncn(C(C)C)c2n1 [Compound 14] |  |  |  |  | N.I. | 30 | N.I. | 50 |  |
| CC[C@H](CO)Nc1nc(Nc2cccc(-c3cccnc3)c2)c2ncn(C(C)C)c2n1 [Compound 15] |  |  |  |  | N.I. | 50 | N.I. | 180 |  |
| CC[C@@H](CO)Nc1nc(Nc2ccc(-c3cncnc3)cc2)c2ncn(C(C)C)c2n1 [Compound 16] |  |  |  |  | N.I. | 100 | N.I. | 180 |  |
| CC(C)n1cnc2c(Nc3cccc(-c4cccnc4)c3)nc(Cl)nc21 [Compound 17] |  |  |  |  | N.I. | 50 | N.I. | 180 |  |
| CC(C)n1cnc2c(Nc3ccc(Br)cc3)nc(-c3cccnc3)nc21 [Compound 18] |  |  |  |  | N.I. | 730 | N.I. | 410 | IC50 (CK1δ/ε [3]; previously reported): 100 nM; IC50 (CDK1/cyclin B [8]): 410 nM |
| CC[C@@H](CO)Nc1nc(Nc2ccc(-c3ncccn3)cc2)c2ncn(C(C)C)c2n1 [Compound 19] |  |  |  |  |  | 270 |  | 500 | IC50 (Pf3D7; [11]): 7130 nM; IC50 (Pf3D7; [12]): 7130 nM; IC50 (Pf7G8; [13]): 1820 nM; IC50 (Pf7G8; [14]): 1820 nM |
| CC[C@@H](CO)Nc1nc(Nc2cccc(-c3ncccn3)c2)c2ncn(C(C)C)c2n1 [Compound 20] |  |  |  |  |  | 500 |  | 700 | IC50 (Pf3D7; [11]): 22200 nM; IC50 (Pf3D7; [12]): 22200 nM; IC50 (Pf7G8; [13]): 4660 nM; IC50 (Pf7G8; [14]): 4660 nM |
| CC[C@H](CO)Nc1nc(Nc2ccc(-c3cncnc3)cc2)c2ncn(C(C)C)c2n1 [Compound 21] |  |  |  |  |  | 60 |  | 40 | IC50 (Pf3D7; [11]): 3050 nM; IC50 (Pf3D7; [12]): 3050 nM; IC50 (Pf7G8; [13]): 690 nM; IC50 (Pf7G8; [14]): 690 nM |
| CC(C)n1cnc2c(Nc3ccc(Br)cc3)nc(-c3ccncc3)nc21 [Compound 22] |  |  |  |  |  | 600 |  | 600 | IC50 (CK1δ/ε [3]; previously reported): 80 nM; IC50 (Pf3D7; [11]): 1390 nM; IC50 (Pf3D7; [12]): 1390 nM; IC50 (CDK1/cyclin B [8]): 590 nM; IC50 (Pf7G8; [13]): 990 nM; IC50 (Pf7G8; [14]): 990 nM |
| NC1=NC(=O)/C(=C2\CCNC(=O)c3[nH]c(Br)cc32)N1 [hymenialdisine] |  |  |  |  |  |  |  |  | IC50 (CK1): 30 nM |
